Reference: patent publication US20260355323A1, “CEREBLON-RECRUITING BCL-XL/BCL-2 DUAL DEGRADERS” (University of Florida Research Foundation, Incorporated, priority 2022, published 2026)

Experiments:
[1] = tested on: platelets; details: animals and/or humans; cited from earlier work
[2] = tested on: venetoclax resistant CLL cells; details: cited from earlier work
[3] = tested on: HUVEC NC; assay: Senolytic activity, cell viability (PrestoBlue HS), HUVEC NC; assay type: cell-based
Experimental: (§1) WI-38 and HUVEC cells were incubated with increasing concentrations of degraders for 72 h. Cell viability was measured using PrestoBlue HS cell viability reagent.

[4] = target: T1, Bcl-xL (Homo sapiens, UniProt Q07817); assay: Bcl-xL protein degradation in Jurkat cells (immunoblot); assay type: cell-based; details: 16 h
T1 construct: immunoblot after 16 h degrader treatment
T1 sequence (Q07817 whole entry): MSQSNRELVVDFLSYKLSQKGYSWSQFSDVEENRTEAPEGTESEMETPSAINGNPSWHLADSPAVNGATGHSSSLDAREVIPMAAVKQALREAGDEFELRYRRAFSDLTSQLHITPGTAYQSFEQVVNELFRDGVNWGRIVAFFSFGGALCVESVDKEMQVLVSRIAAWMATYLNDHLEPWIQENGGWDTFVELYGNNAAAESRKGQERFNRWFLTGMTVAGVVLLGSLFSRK
T1 sequence (Q96SW2 whole entry partner): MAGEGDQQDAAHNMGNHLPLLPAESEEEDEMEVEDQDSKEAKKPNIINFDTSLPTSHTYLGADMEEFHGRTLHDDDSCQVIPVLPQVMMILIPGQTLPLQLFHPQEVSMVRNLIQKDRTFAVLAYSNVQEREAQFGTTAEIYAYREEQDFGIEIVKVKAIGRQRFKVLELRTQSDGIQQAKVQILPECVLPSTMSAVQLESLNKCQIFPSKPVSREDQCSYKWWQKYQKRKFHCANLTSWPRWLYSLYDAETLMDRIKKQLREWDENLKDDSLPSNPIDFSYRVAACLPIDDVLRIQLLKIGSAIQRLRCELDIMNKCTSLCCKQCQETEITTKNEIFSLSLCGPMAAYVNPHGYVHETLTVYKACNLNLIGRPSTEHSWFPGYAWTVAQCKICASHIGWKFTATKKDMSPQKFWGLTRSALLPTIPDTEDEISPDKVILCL
Experimental: (§2) Jurkat and Hela cells were incubated with increasing concentrations of test compounds for 16 h. The cells were harvested and lysed in RIPA lysis buffer supplemented with protease and phosphatase inhibitor cocktails. An equal amount of protein (20 μg/lane) was resolved on a pre-cast 4-20% SDS-PAGE gel. Proteins were subsequently transferred to NOVEX PVDF membranes by electrophoresis. The membranes were blocked in blocking buffer (5% non-fat dry milk in TBS-T), and incubated with primary antibodies (at optimized concentrations) overnight at 4° C. After three washings in TBS-T, the membranes were incubated with an appropriate FIRP-conjugated secondary antibody for 1 h at room temperature. After extensive washing for three times, the proteins of interest were detected with ECL western blotting detection reagents and recorded with autoradiography (Pierce Biotech, Rockford, IL, USA). The primary antibodies for Bcl-xL (Cat #2762), Bcl-2 (Cat #2872), Bcl-w (Cat #2724) and β-actin (Cat #4970) were purchased from Cell Signaling Technology. The relative band intensity was measured using ImageJ software and normalized to β-actin.

[5] = tested on: WI-38 NC; assay: Senolytic activity, cell viability (PrestoBlue HS), WI-38 NC; assay type: cell-based; details: Homo sapiens, 72 h
Experimental: as §1

[6] = tested on: WI-38 irradiation-induced senescent cells (IR-SC); assay: Senolytic activity, cell viability (PrestoBlue HS), WI-38 IR-SC; assay type: cell-based; details: Homo sapiens, 72 h
Method in brief: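 WI-38 and HUVEC were made senescent by 20 Gy x-ray irradiation and used 10–15 days later. Senescent cells were exposed to increasing degrader concentrations for 72 h. Viability was read with PrestoBlue HS.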

[7] = target: T1, Bcl-xL; assay: Bcl-xL protein degradation in Hela cells (immunoblot); assay type: cell-based; details: 16 h
Experimental: as §2

[8] = tested on: RS4;11 acute lymphoblastic leukemia cells; assay: Cell viability, tetrazolium-based MTS assay, RS4;11; details: Homo sapiens, RS4;11, 48 h, read-out: Anti-Cancer Activity EC50 (48 hr), RS4
Experimental: (§3) Acute lymphoblastic leukemia cells (MOLT-4 and RS4;11) were incubated with increasing concentrations of Bcl-xL/Bcl-2 degraders for 48 h. Cell viability was measured by tetrazolium-based MTS assay.

[9] = tested on: MOLT-4 acute lymphoblastic leukemia cells; assay: Cell viability, tetrazolium-based MTS assay, MOLT-4; details: Homo sapiens, MOLT-4, 48 h; read-out: Anti-Cancer Activity EC50 (48 hr), MOLT-4
Experimental: as §3

[10] = tested on: HUVEC irradiation-induced senescent cells (IR-SC); assay: Senolytic activity, cell viability (PrestoBlue HS), HUVEC IR-SC; assay type: cell-based; details: Homo sapiens, 72 h
Experimental: To induce senescence in WI-38 and HUVEC, cells were subjected to x-ray irradiation at 20 Gray using X-RAD 320 biological irradiator. Following between 10 to 15 days after irradiation, senescence was induced in cells, and irradiation-induced senescent cells (IR-SC) were then used for cell viability and Western blotting tests.
as §1

EC50 [8] [nM] | EC50 [9] [nM] | Compound | dose-limiting thrombocytopenia [1] | efficacy in killing venetoclax resistant CLL cells [2] | Senolytic Activity EC50 (72 hr), HUVEC NC [3] | degradation of Bcl-xL [4] | EC50 [5] [µM] | EC50 [6] [nM] | degradation of Bcl-xL [7] | EC50 [10] [nM]
 |  | CC1(C)CCC(c2ccc(Cl)cc2)=C(CN2CCN(c3ccc(C(=O)NS(=O)(=O)c4ccc(N[C@H](CCN5CCOCC5)CSc5ccccc5)c(S(=O)(=O)C(F)(F)F)c4)cc3)CC2)C1 [ABT-263, navitoclax] | dose-limiting thrombocytopenia has been observed | high efficacy |  |  |  |  |  | 
< 1 | < 1 | C[C@@]1(CN2CCC(CN3CCCN(c4ccc5c(c4)CN(C4CCC(=O)NC4=O)C5=O)CC3)CC2)CCC(c2ccc(Cl)cc2)=C(CN2CCN(c3ccc(C(=O)NS(=O)(=O)c4ccc(N[C@H](CCN5CCCOCC5)CSc5ccccc5)c(S(=O)(=O)C(F)(F)F)c4)cc3)CC2)C1 (stereo partly drawn) [Compound 44, N-((4-(((R)-4-(1,4-oxazepan-4-yl)-1-(phenylthio)butan-2-yl)amino)-3-((trifluoromethyl)sulfonyl)phenyl)sulfonyl)-4-(4-(((4R)-4′-chloro-4-((4-((4-(2-(2,6-dioxopiperidin-3-yl)-1-oxoisoindolin-5-yl)-1,4-diazepan-1-yl)methyl)piperidin-1-yl)methyl)-4-methyl-3,4,5,6-tetrahydro-[1,1′-biphenyl]-2-yl)methyl)piperazin-1-yl)benzamide] |  |  | ++ (100-10 μM) | degrade Bcl-xL in a dose-dependent manner | > 10 | 1 to 10 | degrade Bcl-xL in a dose-dependent manner | < 1
